Assay results: US9994515B2, “Aryl naphthyl methanone oxime(s) and process for preparation thereof” (Council of Scientific & Industrial Research, priority 2013, dated 2018)
Where a name gives a salt, the structure may show the parent alone. Read-outs that look alike come from different tables or passages of the source.

Legend:
MDA-MB231 = experiment: MTT assay in MDA-MB-231 breast tumor cells; type: cell-based; settings: 10 point dose response
MCF-7 = experiment: MTT assay in MCF-7 breast tumor cells; type: cell-based; settings: 10 point dose response
Ishikawa = experiment: MTT assay in Ishikawa endometrial adenocarcinoma cells; type: cell-based; settings: Table 6, 48 h, 10 point dose response
DU-145 = experiment: MTT assay in DU-145 prostate tumor cells; type: cell-based; settings: 10 point dose response
K562 = experiment: MTT cytotoxicity assay in K562 cells; type: cell-based
NIH3T3 = experiment: MTT cytotoxicity assay in NIH3T3 fibroblasts; type: cell-based, mouse
Experimental: To consider a molecule as a candidate compound in cancer drug therapy, the test compound must have specific cytotoxicity towards the cancer cells without affecting normal cell growth. Therefore, all active compounds were assessed for toxicity in non-cancer cell-lines: mouse fibroblast cell line (NIH3T3) and monkey kidney epithelial cells (Vero). […] Therefore, based on safety index ([…]), 5d [Centans; based on IUPAC name prefixed with Central Drug Research Institute's signature (Cent)] was selected as a lead compound.

HL60 = experiment: MTT cytotoxicity assay in HL-60 cells; type: cell-based
Kasumi 1 = experiment: Cytotoxicity in Kasumi 1 cells; type: cell-based; settings: Table 2; fumarate
U937 = experiment: Cytotoxicity in U937 cells; type: cell-based; settings: Table 2; fumarate
[1] = tested on: PBMCs isolated from healthy individuals; experiment: MTT cytotoxicity in PBMCs from healthy controls; settings: 1 μM, 48 h; for % cell death, Average: healthy control, average of C1-C3
[2] = Homo sapiens, K562, 48 h, Table 1, MTT assay after 48 h treatment
[3] = Homo sapiens, MDA-MB-231, Table 6, 48 h
[4] = Homo sapiens, MCF7, Table 6, 48 h
[5] = Mus musculus, NIH3T3, 48 h, Table 1, MTT assay after 48 h treatment
[6] = Homo sapiens, HL-60, 48 h, Table 1, MTT assay after 48 h treatment
[7] = Homo sapiens, DU-145, Table 6, 48 h
[8] = Table 1, MTT assay after 48 h treatment, fumarate

| Compound | IC50 (K562; [2]) [µM] | IC50 (MDA-MB231; [3]) [µM] | IC50 (MCF-7; [4]) [µM] | IC50 (NIH3T3; [5]) [µM] | IC50 (Ishikawa; Homo sapiens, Ishikawa) [µM] | IC50 (HL60; [6]) [µM] | IC50 (DU-145; [7]) [µM] | further results |
| --- | --- | --- | --- | --- | --- | --- | --- | --- |
| 4-hydroxy-tamoxifen [OH-TAM, reference compound] | – | – | – | – | – | – | – | IC50 (MDA-MB231; Table 6, 48 h): 8 µM; IC50 (MCF-7; Table 6, 48 h): 8.8 µM; IC50 (Ishikawa): 20 µM; IC50 (DU-145; Table 6, 48 h): 10 µM |
| CSc1ccc(/C(=N/O)c2cccc3ccccc23)cc1 [Compound 4a, (4-(methylthio)phenyl)(naphthalen-1-yl)methanone oxime] | > 50 | 20 | 18 | > 50 | > 50 | > 50 | > 50 | melting point: 135 °C |
| COc1ccc(/C(=N/O)c2cccc3ccccc23)cc1 [Compound 4b, (4-methoxyphenyl)(naphthalen-1-yl)methanone oxime] | > 50 | – | – | > 50 | – | > 50 | – | melting point: 132 °C |
| CSc1ccc(/C(=N/OCCN2CCCC2)c2cccc3ccccc23)cc1 [Compound 5b, (4-(methylthio)phenyl)(naphthalen-1-yl)methanone O-2-(pyrrolidin-1-yl)ethyl oxime oxalate] | 25 | 5.01 | 6.6 | 20 | 6 | 19 | 9.5 | – |
| CSc1ccc(/C(=N/OCCN(C)C)c2cccc3ccccc23)cc1 [Compound 5c, (4-(methylthio)phenyl)(naphthalen-1-yl)methanone O-2-(dimethylamino)ethyl oxime oxalate] | > 50 | 12.8 | 14 | > 50 | 9 | > 50 | 15 | – |
| CSc1ccc(/C(=N/OCCN2CCOCC2)c2cccc3ccccc23)cc1 [Compound 5f, (4-(methylthio)phenyl)(naphthalen-1-yl)methanone O-2-morpholinoethyl oxime] | > 25 | > 50 | > 50 | 26 | > 50 | > 50 | > 50 | – |
| CCN(CC)CCO/N=C(/c1ccc(SC)cc1)c1cccc2ccccc12 [Compound 5j, (4-(methylthio)phenyl)(naphthalen-1-yl)methanone O-2-(diethylamino)ethyl oxime fumarate] | – | – | – | – | – | – | – | IC50 (Kasumi 1): 20 µM; IC50 (K562; [8]): 8.5 µM; IC50 (K562; Table 2, fumarate): 8.5 µM; IC50 (U937): > 24 µM; IC50 (NIH3T3; [8]): 25 µM; IC50 (NIH3T3; Table 2, normal cell line, fumarate): 25 µM; IC50 (HL60; [8]): 10 µM; IC50 (HL60; Table 2, fumarate): 10 µM |
| COc1ccc(/C(=N/OCCN2CCCCC2)c2cccc3ccccc23)cc1 [Compound 6a, (4-methoxyphenyl)(naphthalen-1-yl)methanone O-2-(piperidin-1-yl)ethyl oxime oxalate] | > 50 | > 50 | 18 | > 50 | > 50 | > 50 | > 50 | – |
| COc1ccc(/C(=N/OCCN2CCCC2)c2cccc3ccccc23)cc1 [Compound 6b, (4-methoxyphenyl)(naphthalen-1-yl)methanone O-2-(pyrrolidin-1-yl)ethyl oxime oxalate] | > 50 | > 50 | 25 | > 50 | > 50 | > 50 | > 50 | – |
| COc1ccc(/C(=N/OCCN(C)C)c2cccc3ccccc23)cc1 [Compound 6c, (4-methoxyphenyl)(naphthalen-1-yl)methanone O-2-(dimethylamino)ethyl oxime oxalate] | > 50 | > 50 | 15 | > 50 | > 50 | > 50 | > 50 | – |
| CCN(CC)CCO/N=C(/c1ccc(OC)cc1)c1cccc2ccccc12 [Compound 6d, (4-methoxyphenyl)(naphthalen-1-yl)methanone O-2-(diethylamino)ethyl oxime oxalate] | > 50 | > 50 | 20 | > 50 | > 50 | > 50 | > 50 | – |
| COc1ccc(/C(=N/OCCN(C(C)C)C(C)C)c2cccc3ccccc23)cc1 [Compound 6e, (4-methoxyphenyl)(naphthalen-1-yl)methanone O-2-(diisopropylamino)ethyl oxime oxalate] | > 50 | > 50 | 23 | > 50 | > 50 | > 50 | > 50 | – |
| COc1ccc(/C(=N/OCCCN(C)C)c2cccc3ccccc23)cc1 [Compound 6i, (4-methoxyphenyl)(naphthalen-1-yl)methanone O-3-(dimethylamino)propyl oxime oxalate] | > 50 | > 50 | 20.5 | > 50 | > 50 | > 50 | > 50 | – |
| CSc1ccc(/C(=N/OCCCN2CCCCC2)c2cccc3ccccc23)cc1 [Compound 7a, (4-(methylthio)phenyl)(naphthalen-1-yl)methanone O-3-(piperidin-1-yl)propyl oxime oxalate] | > 20 | 20 | 5 | > 50 | 12 | > 50 | 15 | – |
| CSc1ccc(/C(=N/OCCCN2CCOCC2)c2cccc3ccccc23)cc1 [Compound 7b, (4-(methylthio)phenyl)(naphthalen-1-yl)methanone O-3-morpholinopropyl oxime] | > 50 | > 50 | > 50 | > 50 | > 50 | > 50 | > 50 | melting point: 89 °C |
| CSc1ccc(/C(=N/OCCCCN2CCCCC2)c2cccc3ccccc23)cc1 [Compound 8a, (4-(methylthio)phenyl)(naphthalen-1-yl)methanone O-4-(piperidin-1-yl)butyl oxime] | 6.34 | 18 | 8 | 20 | 18 | 16 | 7.5 | – |
| CSc1ccc(/C(=N/OCCCCN2CCCC2)c2cccc3ccccc23)cc1 [Compound 8b, (4-(methylthio)phenyl)(naphthalen-1-yl)methanone O-4-(pyrrolidin-1-yl)butyl oxime] | > 50 | > 50 | > 50 | > 50 | > 50 | > 50 | > 50 | – |
| Cc1nc(Nc2ncc(C(=O)Nc3c(C)cccc3Cl)s2)cc(N2CCN(CCO)CC2)n1 [Dasatinib] | – | – | – | – | – | – | – | IC50 (K562; Homo sapiens, K562, 48 h, Table 3, MTT, 48 h, 10 point dose response, read-out: IC 50 K562): 6.8 µM; IC50 (HL60; Homo sapiens, HL-60, 48 h, Table 3, MTT, 48 h, 10 point dose response, read-out: IC 50 HL 60): 6.85 µM; % cell death ([1]; healthy control sample C1): 2.39%; % cell death ([1]; healthy control sample C2): 12.03%; % cell death ([1]; healthy control sample C3): 18.93%; % cell death, Average [1]: 11.12% |
| Cc1ccc(NC(=O)c2ccc(CN3CCN(C)CC3)cc2)cc1Nc1nccc(-c2cccnc2)n1 [Imatinib] | – | – | – | – | – | – | – | % cell death ([1]; healthy control sample C1): 10.51%; % cell death, Average [1]: 16.12% |
